Earlier results on one compound are cited in patent publication US6630467B2, “Pyridone-fused azabicyclic- or cytisine derivatives, their preparation and their use in addiction therapy” (Pfizer Inc., priority 1996, dated 2003).

The conditions of this series: in vivo.

Regarding `O=c1cccc2n1CC1CNCC2C1` (centres unmarked) [cytisine, 1,2,3,4,5,6-hexahydro-1,5-methano-pyrido[1,2-a][1,5]diazocin-8-one], the “penetration of the brain barrier” value is given as “inability to penetrate the brain barrier” and the potency result was “not high”.
